The target in one assay is T1, CAMKK1 (Homo sapiens, UniProt Q8N5S9).
T1 construct: purchased Eurofins DiscoverX KINOMEscan
Nature of the assay: DiscoverX KINOMEscan binding assay at 1 μM, CAMKK1. Here is the method:
(§1) Compounds were screened at Eurofins DiscoverX (Freemont, CA) at a single concentration of 1 μM using binding assays as described previously. Briefly, extracts containing DNA-tagged kinases are incubated with immobilized kinase inhibitors and the test compound (at 1 μM). Test compounds that displace the immobilized broad-spectrum inhibitors are detected by quantitative PCR. The results are expressed as the percentage of kinase bound to the bead compared to DMSO control (%control). […] The formula to calculate S10 depicted in Equation (1). (1) S10(1 μM)=number of wild type kinase with % control ≤10/number of wild type kinase tested
(§2) A series of furo [2,3-b]pyridines were generated with modifications off the core at the 3- and 5-positions. They were profiled in the CAMKK2 enzyme assay we have described and utilized previously. Briefly, the enzyme assay measures the ability of the compound to inhibit the transfer of a radiolabeled phosphate from ATP to a CAMKK2-specific peptide. […] 5 was then profiled in the DiscoverX KINOMEscan™ assay panel to provide a view of the overall kinome-wide selectivity (Supplemental S2). This assay platform evaluates compound affinity for a panel of more than 400 wild-type human kinases. The S10 (1 µM), a calculated score that is reflective of broad kinome selectivity, is 0.002 for the probe molecule.

Another assay deals with T2, MYO3B (Homo sapiens, UniProt Q8WXR4).
T2 construct: purchased Eurofins DiscoverX KINOMEscan
T2 sequence (Q8WXR4 1-1341): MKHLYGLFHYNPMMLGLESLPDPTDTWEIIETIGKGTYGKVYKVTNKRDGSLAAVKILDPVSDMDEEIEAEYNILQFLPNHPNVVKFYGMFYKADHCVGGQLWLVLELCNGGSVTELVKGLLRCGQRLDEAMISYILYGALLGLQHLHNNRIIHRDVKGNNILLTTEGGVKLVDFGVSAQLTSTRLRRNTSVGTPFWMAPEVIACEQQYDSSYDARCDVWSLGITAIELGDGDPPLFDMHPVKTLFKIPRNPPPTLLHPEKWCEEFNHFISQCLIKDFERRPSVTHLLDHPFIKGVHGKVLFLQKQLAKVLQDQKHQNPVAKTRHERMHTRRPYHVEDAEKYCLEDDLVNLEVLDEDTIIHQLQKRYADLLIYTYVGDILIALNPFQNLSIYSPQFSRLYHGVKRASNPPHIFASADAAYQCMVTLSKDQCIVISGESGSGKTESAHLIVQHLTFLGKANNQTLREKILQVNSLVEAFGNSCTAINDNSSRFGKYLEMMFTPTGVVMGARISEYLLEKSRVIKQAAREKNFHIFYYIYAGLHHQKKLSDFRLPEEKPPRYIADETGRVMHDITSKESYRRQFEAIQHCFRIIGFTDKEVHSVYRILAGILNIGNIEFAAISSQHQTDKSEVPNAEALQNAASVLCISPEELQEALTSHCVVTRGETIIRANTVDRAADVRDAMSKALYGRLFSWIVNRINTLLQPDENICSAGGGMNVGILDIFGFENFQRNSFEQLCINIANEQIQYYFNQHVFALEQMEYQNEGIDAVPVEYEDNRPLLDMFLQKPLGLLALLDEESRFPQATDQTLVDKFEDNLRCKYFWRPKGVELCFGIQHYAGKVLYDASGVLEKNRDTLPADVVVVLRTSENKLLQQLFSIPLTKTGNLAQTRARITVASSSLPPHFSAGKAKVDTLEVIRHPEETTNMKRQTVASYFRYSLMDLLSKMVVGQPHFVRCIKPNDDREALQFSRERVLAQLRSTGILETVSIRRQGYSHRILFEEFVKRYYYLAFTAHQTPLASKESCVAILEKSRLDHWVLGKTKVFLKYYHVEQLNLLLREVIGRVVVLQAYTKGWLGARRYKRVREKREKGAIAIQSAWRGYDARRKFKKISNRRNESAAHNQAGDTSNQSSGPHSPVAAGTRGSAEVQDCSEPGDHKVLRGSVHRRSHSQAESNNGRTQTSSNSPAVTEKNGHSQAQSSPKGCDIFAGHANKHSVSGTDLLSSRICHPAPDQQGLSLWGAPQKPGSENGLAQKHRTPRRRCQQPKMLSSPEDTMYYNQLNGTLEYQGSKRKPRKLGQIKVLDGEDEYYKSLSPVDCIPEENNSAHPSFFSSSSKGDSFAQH
Kind of assay: DiscoverX KINOMEscan binding assay at 1 μM, MYO3B. The procedure: as §1, §2

For another assay, the target named is CAMKK2 (Homo sapiens, UniProt Q96RR4). Kind of assay: DiscoverX KINOMEscan binding assay at 1 μM, CAMKK2. On the set-up: purchased Eurofins DiscoverX KINOMEscan. The procedure:
as §1, §2

For another assay, the target named is T3, PIP4K2C (Homo sapiens, UniProt Q8TBX8).
T3 construct: purchased Eurofins DiscoverX KINOMEscan
T3 sequence (Q8TBX8 1-421): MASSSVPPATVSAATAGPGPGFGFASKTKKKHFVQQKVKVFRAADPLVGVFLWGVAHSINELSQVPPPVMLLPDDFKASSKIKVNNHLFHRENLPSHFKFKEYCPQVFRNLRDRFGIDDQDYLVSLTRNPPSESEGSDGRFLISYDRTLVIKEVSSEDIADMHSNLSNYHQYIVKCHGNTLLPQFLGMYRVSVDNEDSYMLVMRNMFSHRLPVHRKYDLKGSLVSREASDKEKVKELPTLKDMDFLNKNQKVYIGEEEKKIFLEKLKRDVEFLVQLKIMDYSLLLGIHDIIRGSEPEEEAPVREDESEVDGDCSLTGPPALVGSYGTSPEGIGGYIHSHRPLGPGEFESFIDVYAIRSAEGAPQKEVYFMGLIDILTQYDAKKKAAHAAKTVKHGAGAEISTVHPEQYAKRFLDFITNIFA
Nature of the assay: DiscoverX KINOMEscan binding assay at 1 μM, PIP4K2C. The procedure:
as §1
(§3) In the DiscoverX KinomeSCAN® assay panel, when screened at a concentration of 1 µM, compound 7 bound to very few kinases with S10 (1 µM) = 0.005. The only two kinases with significant binding for compound 7 were PIP4K2C with a PoC = 7.2 and PIM2 with PoC = 7.4. PIP4K2C is a lipid kinase that has very little catalytic activity, and there is no commercially available kinase activity assay, so this potential off-target activity for the negative control remains uncharacterized.

The target in a further assay is PIM2 (Homo sapiens, UniProt Q9P1W9). Nature of the assay: DiscoverX KINOMEscan binding assay at 1 μM, PIM2. Details: purchased Eurofins DiscoverX KINOMEscan. The procedure:
as §1, §3

Setting [1] is: percentage of control, compound at 1 μM, read-out: PoC (1 μM) CAMKK1.
[2] abbreviates: percentage of control, compound at 1 μM, read-out: PoC (1 μM) CAMKK2.

Like-named read-outs stand apart in the source and are kept apart here.

T1 sequence (Q8N5S9 whole entry): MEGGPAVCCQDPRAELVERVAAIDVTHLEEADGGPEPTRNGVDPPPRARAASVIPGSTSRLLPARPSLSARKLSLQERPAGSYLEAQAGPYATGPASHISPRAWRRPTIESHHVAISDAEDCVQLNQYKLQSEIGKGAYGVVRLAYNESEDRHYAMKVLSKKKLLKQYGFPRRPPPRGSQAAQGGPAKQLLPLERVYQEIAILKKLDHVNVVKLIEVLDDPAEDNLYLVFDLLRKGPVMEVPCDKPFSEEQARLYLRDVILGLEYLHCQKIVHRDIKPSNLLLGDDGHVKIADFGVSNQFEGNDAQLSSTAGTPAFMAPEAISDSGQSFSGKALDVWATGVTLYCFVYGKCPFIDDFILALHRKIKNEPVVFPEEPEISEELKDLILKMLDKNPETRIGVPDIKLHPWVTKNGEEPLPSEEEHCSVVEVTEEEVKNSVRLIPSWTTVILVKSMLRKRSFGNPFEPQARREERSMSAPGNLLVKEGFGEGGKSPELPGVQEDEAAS
CAMKK2, sequence (Q96RR4 whole entry): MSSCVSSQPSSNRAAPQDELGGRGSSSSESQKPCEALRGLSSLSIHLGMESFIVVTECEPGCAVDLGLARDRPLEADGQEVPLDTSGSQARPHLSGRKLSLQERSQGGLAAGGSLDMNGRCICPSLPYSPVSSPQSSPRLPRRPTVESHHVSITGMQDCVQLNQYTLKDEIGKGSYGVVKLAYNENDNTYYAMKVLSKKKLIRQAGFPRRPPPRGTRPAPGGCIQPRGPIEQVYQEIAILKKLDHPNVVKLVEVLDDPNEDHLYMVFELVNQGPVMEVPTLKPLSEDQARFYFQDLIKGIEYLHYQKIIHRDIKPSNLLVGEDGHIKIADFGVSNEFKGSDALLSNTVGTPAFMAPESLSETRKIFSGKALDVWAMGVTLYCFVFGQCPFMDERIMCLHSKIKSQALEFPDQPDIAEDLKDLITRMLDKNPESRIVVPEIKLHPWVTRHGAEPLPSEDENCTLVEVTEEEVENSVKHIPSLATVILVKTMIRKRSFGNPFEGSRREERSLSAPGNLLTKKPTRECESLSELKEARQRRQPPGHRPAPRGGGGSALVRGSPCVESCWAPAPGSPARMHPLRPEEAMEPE
PIM2, sequence (Q9P1W9 whole entry): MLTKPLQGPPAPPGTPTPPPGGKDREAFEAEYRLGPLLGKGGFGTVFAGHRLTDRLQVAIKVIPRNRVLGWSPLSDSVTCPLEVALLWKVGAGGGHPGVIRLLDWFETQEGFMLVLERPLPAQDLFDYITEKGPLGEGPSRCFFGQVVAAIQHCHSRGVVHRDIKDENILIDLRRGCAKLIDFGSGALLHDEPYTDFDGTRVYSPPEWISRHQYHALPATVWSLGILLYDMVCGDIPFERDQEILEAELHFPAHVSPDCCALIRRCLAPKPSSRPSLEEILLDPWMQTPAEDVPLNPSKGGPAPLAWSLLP

On to `Cc1cccc(-c2cnc3occ(-c4ccc(C(=O)O)c(C5CCCC5)c4)c3c2)c1` [Compound 5], for which the remaining binding at 1 µM came to 12% on CAMKK1 (setting [1]); 45% on MYO3B (percentage of control, compound at 1 μM, read-out: PoC (1 μM) MYO3B); 5.4% at CAMKK2 (setting [2]).
In the case of `O=C(O)c1ccc(-c2coc3ncc(-c4ccccc4)cc23)cc1Cl` [Compound 7], the remaining binding at 1 µM is 91% on CAMKK1 (setting [1]); 7.2% on PIP4K2C (percentage of control, compound at 1 μM, read-out: PoC (1 μM) PIP4K2C); 84% at CAMKK2 (setting [2]); 7.4% at PIM2 (percentage of control, compound at 1 μM, read-out: PoC (1 μM) PIM2).
As to `Cc1cccc(-c2cnc3occ(-c4ccc(C(=O)O)c(C5CCCC5)c4)c3c2)c1` [SGC-CAMKK2-1 (YL-36)], the remaining binding at 1 µM on CAMKK1 (1000 nM, Entrez CAMKK1, read-out: Percent Control) was 15%; at MYO3B (1000 nM, Entrez MYO3B, read-out: Percent Control), 100%; at PIP4K2C (1000 nM, DiscoveRx PIP5K2C, Entrez PIP4K2C, read-out: Percent Control), 61%; on CAMKK2 (1000 nM, Entrez CAMKK2, read-out: Percent Control) it was 7.5%; on PIM2 (1000 nM, Entrez PIM2, read-out: Percent Control), 96%.
For `O=C(O)c1ccc(-c2coc3ncc(-c4ccccc4)cc23)cc1Cl` [SGC-CAMKK2-1N (UNC-YL-83)], the remaining binding at 1 µM at CAMKK1 (CAMKK1, 1000 nM, read-out: Percent Control) came to 91%; at MYO3B (Compound Concentration 1000 nM, read-out: Percent Control) it was 100%; on PIP4K2C (PIP5K2C (PIP4K2C), 1000 nM, read-out: Percent Control), 7.2%; on CAMKK2 (CAMKK2, 1000 nM, read-out: Percent Control) it was 84%; on PIM2 (PIM2, 1000 nM, read-out: Percent Control), 7.4%.

The values above are taken from publication PMC9856672, “SGC-CAMKK2-1: A Chemical Probe for CAMKK2” (Cells, 2023).
